Measurements reported in PubChem BioAssay (NCI).
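Assay format: 96-well plates, 48-hour exposure. TGI denotes the concentration required for complete inhibition of growth.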

Key:
Assay in all cases: DTP human tumour cell line panel, 48 h
RPMI-8226 leukemia = test system: RPMI-8226 leukemia
TK-10 renal = test system: TK-10 renal
PC-3 prostate = test system: PC-3 prostate
HS 578T breast = test system: HS 578T breast
HCC-2998 colon = test system: HCC-2998 colon
K-562 leukemia = test system: K-562 leukemia
HL-60(TB) leukemia = test system: HL-60(TB) leukemia
NCI/ADR-RES ovarian = test system: NCI/ADR-RES ovarian
EKVX NSCLC = test system: EKVX NSCLC
SNB-75 CNS = test system: SNB-75 CNS
IGROV1 ovarian = test system: IGROV1 ovarian
NCI-H23 lung = test system: NCI-H23 lung
HOP-62 NSCLC = test system: HOP-62 NSCLC
SR leukemia = test system: SR leukemia
MDA-MB-231 breast = test system: MDA-MB-231 breast
SK-MEL-5 melanoma = test system: SK-MEL-5 melanoma
COLO 205 colon = test system: COLO 205 colon
M14 melanoma = test system: M14 melanoma
CCRF-CEM leukemia = test system: CCRF-CEM leukemia
SK-OV-3 ovarian = test system: SK-OV-3 ovarian
HT29 colon = test system: HT29 colon
NCI-H460 lung = test system: NCI-H460 lung
MDA-N = test system: MDA-N
SF-295 CNS = test system: SF-295 CNS
OVCAR-8 ovarian = test system: OVCAR-8 ovarian
SK-MEL-2 melanoma = test system: SK-MEL-2 melanoma
BT-549 breast = test system: BT-549 breast
NCI-H522 lung = test system: NCI-H522 lung
SF-539 CNS = test system: SF-539 CNS
KM12 colon = test system: KM12 colon
MCF7 breast = test system: MCF7 breast
SW-620 colon = test system: SW-620 colon
SNB-19 CNS = test system: SNB-19 CNS
UACC-257 melanoma = test system: UACC-257 melanoma
DU-145 prostate = test system: DU-145 prostate
HCT-15 colon = test system: HCT-15 colon
LOX IMVI melanoma = test system: LOX IMVI melanoma
A498 renal = test system: A498 renal
MDA-MB-435 = test system: MDA-MB-435
SF-268 CNS = test system: SF-268 CNS
786-0 renal = test system: 786-0 renal
ACHN renal = test system: ACHN renal
U251 CNS = test system: U251 CNS
A549 NSCLC = test system: A549 NSCLC
SN12C renal = test system: SN12C renal
OVCAR-5 ovarian = test system: OVCAR-5 ovarian
MOLT-4 leukemia = test system: MOLT-4 leukemia
HCT-116 colon = test system: HCT-116 colon
SK-MEL-28 melanoma = test system: SK-MEL-28 melanoma
NCI-H226 lung = test system: NCI-H226 lung

Measured: TGI

CC(C)(C)OC(=O)NC(Cc1ccc(OC(C)(C)C)cc1)C(=O)N[C@H]1CC[C@H](C(=O)O)C1 (stereo not given in full)
> 100 µM: RPMI-8226 leukemia | TK-10 renal | PC-3 prostate | HS 578T breast | HCC-2998 colon | K-562 leukemia | HL-60(TB) leukemia | NCI/ADR-RES ovarian | EKVX NSCLC | SNB-75 CNS | IGROV1 ovarian | NCI-H23 lung | HOP-62 NSCLC | SR leukemia | MDA-MB-231 breast | SK-MEL-5 melanoma | COLO 205 colon | M14 melanoma | CCRF-CEM leukemia | SK-OV-3 ovarian | HT29 colon | NCI-H460 lung | MDA-N | SF-295 CNS | OVCAR-8 ovarian | SK-MEL-2 melanoma | BT-549 breast | NCI-H522 lung | SF-539 CNS | KM12 colon | MCF7 breast | SW-620 colon | SNB-19 CNS | UACC-257 melanoma | DU-145 prostate | HCT-15 colon | LOX IMVI melanoma | A498 renal | MDA-MB-435 | SF-268 CNS | 786-0 renal | ACHN renal | U251 CNS | A549 NSCLC | SN12C renal | OVCAR-5 ovarian | MOLT-4 leukemia | HCT-116 colon | SK-MEL-28 melanoma | NCI-H226 lung
